Marks after values point to notes of the source that are not given here.

Here are results for one compound from patent US20230106102A1, “METHOD OF PRODUCING TRICHODESMA KHASIANUM CLARKE LEAF EXTRACTS AND APPLICATION OF THE SAME” (BAI-CHUNG-REN Foodstuff.Co.Ltd, priority 2021, published 2023).

Type in all cases: in vivo
Data set [1] in a line: Calorie intake, alcohol intake and body weight of mice fed alcohol liquid diet. The following applies: for Body weight: RA group. How it is done:
In the design of this study, male mice of C57BL/6J strain are eight weeks old and are pre-bred for two weeks before starting the experiment to allow the animals to adapt to the environment, and observe whether the animals are abnormal daily. Raising at a relative humidity of 60%, 23±1° C., 12-hour light cycle (8:00-20:00), unlimited feed and water for rodents. The establishment and experimental grouping of liver injury and fatigue model animals. The trichodesma khasianum […] extract powders explore the effect of alcohol liquid diet on fatty liver and liver damage in mice, male mice of the C57BL/6J strain of 8 weeks old, are given special diet for experimental animals (Laboratory Rodent Diet) during the 2 week adaptation period. After one week, the body weight reached 20g, and the group is tested and started to be fed with standard alcoholic liquid model feed (Lieber-DeCarli Regular Control (DYET#710027)) or ethanol feed (Ethanol Diet (DYET#710260)), food and water are not restricted. The test is carried out for six weeks. The test substance is given a fixed daily dose by tube feeding. The dosage conversion refers to the US Food and Drug Administration announcement (US FDA, 2005), based on a 60 kg adult, the recommended daily body weight per kg 12.3 times the intake is the dose for mice. The animal experiment is divided into five groups, and each group has 8 mice, so there are […] mice, including normal group (NOR group), alcohol group (ALD group), low dose of the trichodesma khasianum […] extract powder (TL group) and high dose group of the trichodesma khasianum […] extract powder (TH group), and rosmarinic acid group (RA group). The recommended daily intake of the trichodesma khasianum […] extract powders are 2 g per day. After the animal experiment dose is converted, the one-time dose is […], and the […]-time dose is 0.82 g/kg. After fasting for 12 hours, the experimental animals are sacrificed by carbon dioxide asphyxiation, and blood and liver tissues are collected. After the blood is centrifuged, the serum is collected for biochemical analysis. The surface of the tissue is cleaned with saline solution, dried with a paper towel and weighed, then the tissue of the second largest leaf of the liver is cut and placed in a tissue embedding basin soaked in 10% formalin for paraffin embedding and sectioning so as to have tissue staining analysis. Finally, all remained livers are cleaned internally with 0.9% saline and stored in a -80° C. refrigerator for later use. The aforementioned test items of liver function in serum are aspartate aminotransferase (AST), alanine aminotransferase (ALT) and alkaline phosphatase (ALP) which are tested by using biochemical automatic analyzer (Beckman-700, Fullerton, Calif., USA). The test items of a concentration of lipid in blood are total cholesterol (TC) and triglyceride (TG) in serum, wherein a concentration of the total cholesterol is analyzed by using commercially available biochemical reagents (BXC 0261, Fortress), and a concentration of the biochemical reagents (BXC 0271, Fortress) is analyzed by triglyceride. The test items of a concentration of liver lipid are total cholesterol and triglycerides, wherein a concentration of the total cholesterol of the liver lipid is analyzed by using commercially available biochemical reagents (BXC 0261, Fortress), and a concentration of the biochemical reagents (BXC 0271, Fortress) of the liver lipid is analyzed by triglyceride. A production of lipid peroxide malondialdehyde (MDA) is determined by way of thiobarbituric acid (thiobarbituric acid) color method, wherein the more the product of lipid peroxide malondialdehyde is, the higher the absorbance value produces. Therefore, when the sample is capable of reducing the absorbance value of the system, it means that an anti-oxidant effect is formed. […]

Data set [2] deals with Mice with Alcoholic Liver Injury. The data set can be described thus: Serum total cholesterol and triglyceride. The method, then: (§1) In the design of this study, male mice of C57BL/6J strain are eight weeks old and are pre-bred for two weeks before starting the experiment to allow the animals to adapt to the environment, and observe whether the animals are abnormal daily. Raising at a relative humidity of 60%, 23±1° C., 12-hour light cycle (8:00-20:00), unlimited feed and water for rodents. The establishment and experimental grouping of liver injury and fatigue model animals. The trichodesma khasianum […] extract powders explore the effect of alcohol liquid diet on fatty liver and liver damage in mice, male mice of the C57BL/6J strain of 8 weeks old, are given special diet for experimental animals (Laboratory Rodent Diet) during the 2 week adaptation period. After one week, the body weight reached 20g, and the group is tested and started to be fed with standard alcoholic liquid model feed (Lieber-DeCarli Regular Control (DYET#710027)) or ethanol feed (Ethanol Diet (DYET#710260)), food and water are not restricted. The test is carried out for six weeks. The test substance is given a fixed daily dose by tube feeding. The dosage conversion refers to the US Food and Drug Administration announcement (US FDA, 2005), based on a 60 kg adult, the recommended daily body weight per kg 12.3 times the intake is the dose for mice. The animal experiment is divided into five groups, and each group has 8 mice, so there are […] mice, including normal group (NOR group), alcohol group (ALD group), low dose of the trichodesma khasianum […] extract powder (TL group) and high dose group of the trichodesma khasianum […] extract powder (TH group), and rosmarinic acid group (RA group). […] The test items of a concentration of lipid in blood are total cholesterol (TC) and triglyceride (TG) in serum, wherein a concentration of the total cholesterol is analyzed by using commercially available biochemical reagents (BXC 0261, Fortress), and a concentration of the biochemical reagents (BXC 0271, Fortress) is analyzed by triglyceride. The test items of a concentration of liver lipid are total cholesterol and triglycerides, wherein a concentration of the total cholesterol of the liver lipid is analyzed by using commercially available biochemical reagents (BXC 0261, Fortress), and a concentration of the biochemical reagents (BXC 0271, Fortress) of the liver lipid is analyzed by triglyceride. A production of lipid peroxide malondialdehyde (MDA) is determined by way of thiobarbituric acid (thiobarbituric acid) color method, wherein the more the product of lipid peroxide malondialdehyde is, the higher the absorbance value produces. Therefore, when the sample is capable of reducing the absorbance value of the system, it means that an anti-oxidant effect is formed. […]

Data set [3] deals with mice with alcohol-induced liver injury. The data set can be described thus: Liver weight / body weight ratio (liver enlargement) in mice fed alcohol liquid diet. Particulars: p<0.05. The method, then:
(§2) In the design of this study, male mice of C57BL/6J strain are eight weeks old and are pre-bred for two weeks before starting the experiment to allow the animals to adapt to the environment, and observe whether the animals are abnormal daily. Raising at a relative humidity of 60%, 23±1° C., 12-hour light cycle (8:00-20:00), unlimited feed and water for rodents. The establishment and experimental grouping of liver injury and fatigue model animals. […] The test items of a concentration of lipid in blood are total cholesterol (TC) and triglyceride (TG) in serum, wherein a concentration of the total cholesterol is analyzed by using commercially available biochemical reagents (BXC 0261, Fortress), and a concentration of the biochemical reagents (BXC 0271, Fortress) is analyzed by triglyceride. The test items of a concentration of liver lipid are total cholesterol and triglycerides, wherein a concentration of the total cholesterol of the liver lipid is analyzed by using commercially available biochemical reagents (BXC 0261, Fortress), and a concentration of the biochemical reagents (BXC 0271, Fortress) of the liver lipid is analyzed by triglyceride. A production of lipid peroxide malondialdehyde (MDA) is determined by way of thiobarbituric acid (thiobarbituric acid) color method, wherein the more the product of lipid peroxide malondialdehyde is, the higher the absorbance value produces. […]

The subject of data set [4] is Mice with Alcoholic Liver Injury. Briefly: Liver lipid peroxidation (MDA, thiobarbituric acid color method). The following applies: RA group. The method, then:
as §2

Data set [5] has as its system mice with alcohol-induced liver injury. Briefly: Liver pathological section, H&E stain. Particulars: FIG. 3, extract: TL and TH group, RA group. The method, then:
as §2

Data set [6] shares this test system. Briefly: Serum liver function index (AST, ALT) by biochemical automatic analyzer. Particulars: FIG. 2, extract: TL and TH group, RA group, p<0.05 vs ALD. How it is done: as §2
Data set [7] has as its system Mice with Alcoholic Liver Injury. Briefly: Liver total cholesterol and triglyceride. The following applies: RA group. The method, then: as §1
Setting [8] is: RA group, alcohol liquid diet six weeks.
Setting [9] is: extract high dose (TH group) or RA group.
Where [10] appears, read: extract: TL and TH group, p<0.05.

Turning to `O=C(/C=C/c1ccc(O)c(O)c1)O[C@H](Cc1ccc(O)c(O)c1)C(=O)O` [RA, rosmarinic acid], in data set [1] (0 to 6 weeks, alcohol feed diet, p>0.05), the “body weight compared with the alcohol group” value is recorded as “no significant difference”. Moreover, the Body weight was 22.3 ± 0.7^a g in data set [1] (Day 0); 21.7 ± 0.7^a g in data set [1] (Day 7); 20.6 ± 0.5^a g in data set [1] (Day 14); 23.3 ± 0.8^a g in data set [1] (Day 21); 22.3 ± 0.7^a g in data set [1] (Day 28); 21.6 ± 0.8^a g in data set [1] (Day 35). The Body weight in data set [1] (Day 42) is 24.6 ± 1.0^a g. Besides, the Serum total cholesterol in data set [2] (setting [8]) is reported as 105.9 ± 9.97 ^ab mg/dL. In addition, the Serum triglyceride in data set [2] (setting [8]) is reported as 107.7 ± 23.5 ^b mg/dL. The “serum total cholesterol raised by alcohol diet, compared with ALD group” value in data set [2] (setting [9]) is “significantly reduce”. Besides, in data set [2] (setting [9]), the “serum triglyceride raised by alcohol diet, compared with ALD group” value is “significantly reduce”. Moreover, the “ratio of liver weight/body weight compared with ALD group” value in data set [3] (FIG. 1) was “significantly lower”. Besides, the “alcohol-induced liver enlargement in mice” value in data set [3] (extract: TL and TH group, RA group) is given as “significantly reduces”. In data set [4] (extract: TH group, no significant difference (p>0.05)), the “production of liver lipid peroxides induced by alcohol diet” value is on record as “tendency to reduce”. Also, the MDA in data set [4] (liver, alcohol liquid diet six weeks) was 5.00 ± 0.90 ^ab mM/g. In addition, the “liver pathological examination (H&E section)” value in data set [5] is “only a few fat vacuoles and macrophage infiltration around the central vein”; in data set [5] (listed as rosmarinic acid), “improves the effects of alcoholic fatty liver and cell damage”. Besides, the “serum alanine transaminase (ALT/GPT) activity induced by alcohol diet” value in data set [6] was “significantly reduced”; in data set [6] (listed as rosmarinic acid), “significantly reduce”. In data set [7] (alcohol liquid diet six weeks), the Liver total cholesterol was 6.3 ± 0.56 ^b mg/g. In addition, the Liver triglyceride in data set [7] (alcohol liquid diet six weeks) is 8.4 ± 1.68 ^bc mg/g. The “liver cholesterol concentration in mice” value in data set [7] (setting [10]) is reported as “significantly reduce”. The “liver triglyceride concentration in mice” value in data set [7] (setting [10]) is given as “significantly reduce”.
